# Test results from the supplement of paper PMC4932681.
# Counter-ions that a name gives are not always drawn.
# What was measured:
# [1] = system: MCF-7 Tam1; test: drug sensitivity score (DSS) (DSS (dimensionless)); higher = more sensitive; extreme values may be limits of the assay; settings: 4-OH-tamoxifen in medium 1 µM; 72 h
# How it was run: (§1)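 CellTiter-Glo viability was the readout, taken on a PHERAstar and normalised to vehicle-only and positive controls. It was measured after breast cancer cell lines and their resistant derivatives spent 72 h at 37 °C in 384-well plates containing library drugs at five concentrations spanning a 10 000-fold range, with 1 μM of the selecting drug in the medium of resistant lines. From logistic dose–response fits in the Breeze pipeline came drug sensitivity score, relative IC50 (curve midpoint) and top-dose inhibition.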
# [2] = system: BT-474; test: as above; settings: 72 h
# How it was run: as §1
# [3] = system: T-47D Tam2; test: as above; settings: 4-OH-tamoxifen in medium 1 µM; 72 h
# How it was run: as §1
# [4] = system: ZR-75-1; test: as above; settings: 72 h
# How it was run: as §1
# [5] = system: T-47D Tam1; test: as above; settings: 4-OH-tamoxifen in medium 1 µM; 72 h
# How it was run: as §1
# [6] = system: MCF-7; test: as above; settings: 72 h
# How it was run: as §1
# [7] = system: BT-474 Tam1; test: as above; settings: 4-OH-tamoxifen in medium 1 µM; 72 h
# How it was run: as §1
# [8] = system: ZR-75-1 Tam2; test: as above; settings: 4-OH-tamoxifen in medium 1 µM; 72 h
# How it was run: as §1
# [9] = system: T-47D; test: as above; settings: 72 h
# How it was run: as §1
# [10] = system: BT-474 Tam2; test: as above; settings: 4-OH-tamoxifen in medium 1 µM; 72 h
# How it was run: as §1
# [11] = system: ZR-75-1 Tam1; test: as above; settings: 4-OH-tamoxifen in medium 1 µM; 72 h
# How it was run: as §1
# [12] = system: MCF-7 Tam1; test: relative IC50 (midpoint of fitted logistic curve, plateau may be below 50% inhibition; CellTiter-Glo viability); higher = less potent; settings: 4-OH-tamoxifen in medium 1 µM; 72 h
# How it was run: as §1
# [13] = system: BT-474; test: as above; settings: 72 h
# How it was run: as §1
# [14] = system: T-47D Tam2; test: as above; settings: 4-OH-tamoxifen in medium 1 µM; 72 h
# How it was run: as §1
# [15] = system: ZR-75-1; test: as above; settings: 72 h
# How it was run: as §1
# [16] = system: T-47D Tam1; test: as above; settings: 4-OH-tamoxifen in medium 1 µM; 72 h
# How it was run: as §1
# [17] = system: MCF-7; test: as above; settings: 72 h
# How it was run: as §1
# [18] = system: BT-474 Tam1; test: as above; settings: 4-OH-tamoxifen in medium 1 µM; 72 h
# How it was run: as §1
# [19] = system: ZR-75-1 Tam2; test: as above; settings: 4-OH-tamoxifen in medium 1 µM; 72 h
# How it was run: as §1
# [20] = system: T-47D; test: as above; settings: 72 h
# How it was run: as §1
# [21] = system: BT-474 Tam2; test: as above; settings: 4-OH-tamoxifen in medium 1 µM; 72 h
# How it was run: as §1
# [22] = system: ZR-75-1 Tam1; test: as above; settings: 4-OH-tamoxifen in medium 1 µM; 72 h
# How it was run: as §1
Compound,relative IC50 [12] [µM],relative IC50 ([13]; 4-OH-tamoxifen in medium 0 µM) [µM],relative IC50 [14] [µM],relative IC50 [16] [µM],relative IC50 ([17]; 4-OH-tamoxifen in medium 0 µM) [µM],relative IC50 [18] [µM],relative IC50 ([20]; 4-OH-tamoxifen in medium 0 µM) [µM],relative IC50 ([20]; 4-OH-tamoxifen in medium 1 µM) [µM],relative IC50 [21] [µM],relative IC50 ([13]; 4-OH-tamoxifen in medium 1 µM) [µM],relative IC50 ([17]; 4-OH-tamoxifen in medium 1 µM) [µM],drug sensitivity score [1],drug sensitivity score ([2]; 4-OH-tamoxifen in medium 0 µM),drug sensitivity score ([2]; 4-OH-tamoxifen in medium 1 µM),drug sensitivity score [3],drug sensitivity score ([4]; 4-OH-tamoxifen in medium 0 µM),drug sensitivity score ([4]; 4-OH-tamoxifen in medium 1 µM),drug sensitivity score [5],drug sensitivity score ([6]; 4-OH-tamoxifen in medium 0 µM),drug sensitivity score ([6]; 4-OH-tamoxifen in medium 1 µM),drug sensitivity score [7],drug sensitivity score [8],drug sensitivity score ([9]; 4-OH-tamoxifen in medium 0 µM),drug sensitivity score ([9]; 4-OH-tamoxifen in medium 1 µM),drug sensitivity score [10],drug sensitivity score [11],relative IC50 ([15]; 4-OH-tamoxifen in medium 0 µM) [µM],relative IC50 ([15]; 4-OH-tamoxifen in medium 1 µM) [µM],relative IC50 [19] [µM],relative IC50 [22] [µM]
NC(=O)NO [Hydroxyurea],> 100,> 100,> 100,> 100,> 100,> 100,> 100,> 100,> 100,–,–,0,0,0.154,0,0,0,0,0,0,0,0,0,0,0,0,> 100,> 100,> 100,> 100
Cn1c(CCCC(=O)O)nc2cc(N(CCCl)CCCl)ccc21 [Bendamustine (hydrochloride hydrate)],> 10,> 10,> 10,> 10,–,> 10,> 10,> 10,> 10,> 10,> 10,0,0,0,0,0,0,0,0.159,0,0,0,0,0,0,0,> 10,> 10,> 10,> 10
C[C@]12C=CC(=O)C=C1CC[C@@H]1[C@@H]2C(=O)C[C@@]2(C)[C@H]1CC[C@]2(O)C(=O)CO [Prednisone],> 10,> 10,> 10,> 10,> 10,> 10,> 10,> 10,> 10,> 10,> 10,0,0,0,0,0,0,0,0,0,0,0,0,0,0,0,> 10,> 10,> 10,> 10
O=P(O)(NCCCl)NCCCl [Ifosfamide mustard],> 10,> 10,> 10,> 10,> 10,> 10,> 10,> 10,> 10,> 10,> 10,0,0,0,0,0,0,0,0,0,0,0,0,0,0,0,> 10,> 10,> 10,> 10

# The next lines start with results.
relative IC50 [12] [µM],relative IC50 ([13]; 4-OH-tamoxifen in medium 0 µM) [µM],relative IC50 [14] [µM],relative IC50 [16] [µM],relative IC50 ([17]; 4-OH-tamoxifen in medium 0 µM) [µM],relative IC50 [18] [µM],relative IC50 ([20]; 4-OH-tamoxifen in medium 0 µM) [µM],relative IC50 ([20]; 4-OH-tamoxifen in medium 1 µM) [µM],relative IC50 [21] [µM],relative IC50 ([13]; 4-OH-tamoxifen in medium 1 µM) [µM],relative IC50 ([17]; 4-OH-tamoxifen in medium 1 µM) [µM],Compound,drug sensitivity score [1],drug sensitivity score ([2]; 4-OH-tamoxifen in medium 0 µM),drug sensitivity score ([2]; 4-OH-tamoxifen in medium 1 µM),drug sensitivity score [3],drug sensitivity score ([4]; 4-OH-tamoxifen in medium 0 µM),drug sensitivity score ([4]; 4-OH-tamoxifen in medium 1 µM),drug sensitivity score [5],drug sensitivity score ([6]; 4-OH-tamoxifen in medium 0 µM),drug sensitivity score ([6]; 4-OH-tamoxifen in medium 1 µM),drug sensitivity score [7],drug sensitivity score [8],drug sensitivity score ([9]; 4-OH-tamoxifen in medium 0 µM),drug sensitivity score ([9]; 4-OH-tamoxifen in medium 1 µM),drug sensitivity score [10],drug sensitivity score [11],relative IC50 ([15]; 4-OH-tamoxifen in medium 0 µM) [µM],relative IC50 ([15]; 4-OH-tamoxifen in medium 1 µM) [µM],relative IC50 [19] [µM],relative IC50 [22] [µM]
0.0241,0.0227,0.00876,0.00817,0.0114,0.0189,0.00779,0.00851,0.0352,0.0275,0.0135,Cc1c2oc3c(C)ccc(C(=O)N[C@@H]4C(=O)N[C@H](C(C)C)C(=O)N5CCC[C@H]5C(=O)N(C)CC(=O)N(C)[C@@H](C(C)C)C(=O)O[C@@H]4C)c3nc-2c(C(=O)N[C@@H]2C(=O)N[C@H](C(C)C)C(=O)N3CCC[C@H]3C(=O)N(C)CC(=O)N(C)[C@@H](C(C)C)C(=O)O[C@@H]2C)c(N)c1=O [Dactinomycin],16.1,11.2,17.9,16,20.5,17.4,18.2,20.2,20,20.1,23.2,16.8,12,16.1,19.8,0.0045,0.00903,0.00833,0.00956
0.341,0.385,0.282,0.133,0.208,0.398,0.134,0.35,0.393,0.375,0.189,COc1cccc2c1C(=O)c1c(O)c3c(c(O)c1C2=O)C[C@@](O)(C(C)=O)C[C@@H]3O[C@H]1C[C@H](N)[C@H](O)[C@H](C)O1 [Daunorubicin],1.34,2.33,4.51,4.19,6.15,5.38,6.95,6.15,7.3,3.18,6.6,7.41,3.69,1.15,5.81,0.138,0.124,0.15,0.164
> 100,> 100,> 100,> 100,> 100,> 100,> 100,> 100,> 100,–,–,CS(=O)(=O)OCCCCOS(C)(=O)=O [Busulfan],0,0,0,0,0,0,0,0,0.0038,0,0,0,0,0,0,> 100,> 100,> 100,> 100
